From patent US12268747B2, “Polypeptides having anti-senescent effects and uses thereof” (OneSkin, Inc., priority 2019, dated 2025)
Peptide text beside a SMILES is read from it.

Columns and labels:
[1] = system: Human primary fibroblasts isolated from 3 healthy chronologically aged (elder) donors; assay: 3-week exposure: SA-β-galactosidase senescence and proliferation; assay type: cell-based; details: 3.12 μM, counted at days 7, 14, 21, 28
Method: Human primary fibroblasts isolated from 3 healthy chronologically aged (elder) donors were used. These cells were cultured in DMEM (Dulbecco's Modified Eagle's Medium) supplemented with 10% v.v. fetal bovine serum (FBS), and 1% v.v. of penicillin/streptomycin solution (1,000 U·mL−1). Cells were kept in a 5% CO2, 37° C. and 95% humidity atmosphere. After expansion, these cells were seeded in T-75 flasks (250,000 cells per flask) and, 6 hours after plating, were incubated for 3 weeks (21 days) with Peptide 14 at 3.12 μM. A negative control comprised untreated cells, which received vehicle only. Day 0 was defined as the day cells started to be treated with Peptide 14. No Peptide 14 treatment was performed between days 21 and 28. Weekly, cellular senescence was assessed according to senescence associated β-galactosidase staining levels. Data was normalized to untreated group and plotted (FIG. 4, panel A). Cellular proliferation was also determined weekly. At days 7, 14, 21, and 28, cells were trypsinized and counted (FIG. 4, panel B). After counting, 250,000 cells were plated in new T-75 flasks. Three independent experiments (biological replicates) including three technical replicates were performed. Data was analyzed using T-test. Statistical significance was determined as p values equal or lower than 0.05.

[2] = system: human primary fibroblasts isolated from 3 healthy donors, UVB exposed; assay: UVB-induced senescence in fibroblasts; assay type: cell-based; details: 5 μM, 48 hours after UVB
Method: Cellular senescence may be caused by several different stimuli. In order to assess whether Peptide 14 was effective against UVB-induced and chemically-induced senescence, human primary fibroblasts isolated from 3 healthy donors were used. These cells were cultured in DMEM (Dulbecco's Modified Eagle's Medium) supplemented with 10% v.v. fetal bovine serum (FBS), and 1% v.v. of penicillin/streptomycin solution (1,000 U·mL−1). Cells were kept in a 5% CO2, 37° C. and 95% humidity atmosphere. After expansion, these cells were seeded in 96-well plates (4,000 cells per well) and, 6 hours after plating, were submitted to either etoposide (20 μM) treatment for 24 hours, or exposed twice to 0.05 J/cm^2 of UVB radiation. […] After incubation, relative cellular senescence (assessed by the activity of senescence associated β-galactosidase staining relative to untreated control) was analyzed and plotted in column graphs. ATRX foci were also assessed following ATRX immunofluorescence staining. Graphs were built using the average ATRX foci detected per nuclei. […] Data was analyzed using with either t-test or ANOVA followed by a Bonferroni post-hoc test. Statistical significance was determined as p-values equal or lower than 0.05 (FIG. 6).

[3] = system: Caenorhabditis elegans; assay: C. elegans healthspan and lifespan; assay type: in vivo; details: 1 μM and 2 μM, no decrease in worm movement at either time point
Method: Senotherapeutic strategies can be linked to healthspan and lifespan extension in vivo. In order to assess whether Peptide 14 promotes extended healthspan and lifespan, Caenorhabditis elegans worms were used. Peptide 14 was added in the worm media (M9 buffer media) at different concentrations of 1 μM or 2 μM. Negative control worms received vehicle only. Two healthspan parameters were assessed i) pharyngeal pumping and ii) worm movement. Lifespan was also determined. For pharyngeal pumping analysis, 15 worms had their pharynx movement (pumping) observed daily and counted for 20 seconds. This experiment was repeated 3 times, by 2 different blind observers, employing different populations of animals at different days. Statistical difference was detected by analyzing each individual time point by One-Way ANOVA and Dunnet's post hoc test. All groups were compared with the H2O group. For worm movement analysis, the basic movement of C. elegans, also called thrashing, was measured daily for 15 worms. […] Statistical difference was detected by analyzing each individual time point by One-Way ANOVA and Dunnet's post hoc, and all groups were compared with the H2O group. […] The average lifespan was measured. Statistical difference was detected by analyzing each individual time point by One-Way ANOVA and Dunnet's post hoc, and all groups were compared with the H2O group (FIG. 18).

[4] = system: Primary fibroblasts isolated from 3 healthy chronologically aged patients; assay: SA-B-galactosidase senescence in fibroblasts of aged donors, concentration series; assay type: cell-based, human; details: 1.56-50 μM (Peptide 16: 1.56-25 μM), 48 hours; in at least one of the tested concentrations
Method: Primary fibroblasts isolated from 3 healthy chronologically aged patients were used. Cells were cultured in DMEM (Dulbecco's Modified Eagle's Medium) supplemented with 10% v.v. fetal bovine serum (FBS), and 1% v.v. of penicillin/streptomycin solution (1,000 U·mL−1). Cells were kept in a 5% CO2, 37° C. and 95% humidity atmosphere. After expansion, these cells were seeded in 96-well plates (4,000 cells per well) and, 6 hours after plating the cells were treated with one of 4 senotherapeutic polypeptides (Peptide 14, Peptide 13, Peptide 15, and Peptide 16) and incubated for 48 hours. Each polypeptide was tested at 6 different concentrations: 50 μM, 25 μM, 12.5 μM, 6.25 μM, 3.12 μM, and 1.56 μM, except for Peptide 16, which was tested at 5 different concentrations: 25 μM, 12.5 μM, 6.25 μM, 3.12 μM, and 1.56 μM. A negative control comprised untreated cells, which received vehicle only. After incubation, relative cellular senescence (assessed by the activity of senescence associated B-galactosidase staining relative to untreated control) was analyzed (FIG. 2, panels A-D), in which the Y axis indicates the relative senescence levels normalized to untreated control. Each column corresponds to a different concentration of a polypeptide. Three independent experiments (biological replicates) including three technical replicates were performed. Data was analyzed using Analysis of Variance (ANOVA) and a Bonferroni post-hoc tests. Statistical significance was determined as p values equal or lower than 0.05.

[5] = system: pAkt S473; assay: Akt S473 phosphorylation western blot in human skin equivalents; assay type: cell-based; details: 1 μM, 5 days
Method: (§1) In order to shed light into the mechanism of action of Peptide 14 and similar Peptide 13, Akt S473 phosphorylation (FIG. 8, panel A), senescence associated β-galactosidase staining (FIG. 8, panel B), as well as mRNA expression (FIG. 8, panel C) were investigated. For Akt S473 phosphorylation analysis using western blotting, human primary fibroblasts and keratinocytes were used. These cells were used to build human skin equivalents, which were kept in a 5% CO2, 37° C. and 95% humidity atmosphere air liquid interface. Then, skin equivalents were treated with 1 μM of either Peptide 14 or Peptide 13 for 5 days, and protein analysis was performed on the skin equivalents. Protein was isolated and quantified. Equal amounts of protein were loaded in polyacrylamide gels and transferred into a nitrocellulose membrane. […] Relative pAkt S473/GAPDH signal was compared between treated and non-treated samples. For senescence associated B-galactosidase staining experiments, fibroblasts were used. […] Total RNA was isolated, samples were reverse transcribed, and mRNA expression of GAPDH, sirtuin 6 (SIRT6), BLM, and exonuclease 1 (EXO1) genes were determined using qPCR. […] CT values were analyzed using the 2^−ΔΔCt method. […] Data was analyzed using a T-test. Statistical significance was determined as p values equal or lower than 0.05 (FIG. 8).

[6] = system: fibroblasts, UVB exposed; assay: SA-B-galactosidase staining in UVB-exposed fibroblasts (Example 8); assay type: cell-based, human; details: 48 hours after UVB 2 x 0.05 J/cm^2
Method: as §1

[7] = system: human skin equivalents from elder donors; assay: Human skin equivalents: histology score and morphology (Example 18); assay type: cell-based; details: 0.01% w/v (or 1 μM), 5 days; vehicle control 21.00
Method: To test the effect of Peptide 13 and Peptide 14 treatment on human skin models and the skin morphology, human primary fibroblasts and keratinocytes isolated from healthy elder donors were used to build human skin equivalents. The skin equivalents were treated with 0.01% w/v (or 1 μM) of Peptide 13 or Peptide 14 for 5 days. The negative controls were treated with formulation only. After the 5-day culture, the skin equivalents were analyzed for epidermal thickness, which was quantified according to total epidermal area. Quality assessment based several parameters was performed by blind analysts. […] A minimal score of 19 was required for batch use. This score was validated internally and shown to decrease with age/senescence of the skin equivalents or cultured cells. Three independent experiments were performed with three technical replicates. Data were analyzed using a t-test. Statistical significance was determined as p-values equal or lower than 0.05. The statistically significant p-values are noted by * for p<0.05; ** for p<0.01; *** for p<0.001; **** for p<0.0001 between the groups.

[8] = system: p16, BLIMP1, ZYG11B, IL-8, Ki-67, ZIC1, MMP1, HAS2 mRNA in 3D skin equivalents; assay: 3D skin equivalents: relative mRNA expression of senescence, aging and health markers; assay type: cell-based, human
Method: 3D skin equivalent sections of samples built with cells from elder donors ([…]) were treated with 1 μM Peptide 14 or Peptide 13, or 20 μM Retinoic Acid (RA) and assessed for the effect of the various treatments of various markers of senescence, aging, and health.
Data are presented as 2-ddCt normalized to GAPDH and untreated control. *p<0.05. Peptide 13 and Peptide 14-treated samples generally had similar relative mRNA expression levels for p16, BLIMP1, ZYG11B, IL-8, and Ki-67 in the epidermal layer, and for p16, MMP1, HAS2, IL-8, and Ki-67 in the dermal layer. Peptide 13 and Peptide 14-treated samples generally had lower relative mRNA expression levels than RA-treated samples for p16, BLIMP1, ZYG11B, IL-8, in the epidermal layer and for p16, MMP1, IL-8, and Ki-67 in the dermal layer. Peptide 13 and Peptide 14-treated samples generally had higher relative mRNA expression levels than RA-treated samples for Ki-67 in the epidermal layer and for HAS2 for the dermal layer. Peptide 13 and Peptide 14-treated samples had similar relative mRNA expression levels as RA-treated samples for ZIC1 and Ki-67 for dermal layer.

[9] = 1 μM peptide vs 20 μM Retinoic Acid

Row | Compound | cell proliferation vs untreated control [1] | cell number [2] | toxicity to C. elegans (worm movement) [3] | relative cellular senescence (SA-B-galactosidase staining) vs untreated control [4] | pAkt S473 in dermal samples [5] | pAkt S473 in epidermal samples [5] | SA-B-galactosidase staining in UVB-exposed samples [6] | mean of histology scores (maximum 28) [7] | relative mRNA, Peptide 13 vs Peptide 14: p16, BLIMP1, ZYG11B, IL-8, Ki-67 (epidermal); p16, MMP1, HAS2, IL-8, Ki-67 (dermal) ([8]; 1 μM each) | relative mRNA vs RA-treated samples: Ki-67 (epidermal), HAS2 (dermal) [8, 9] | relative mRNA vs RA-treated samples: ZIC1 and Ki-67 (dermal) [8, 9] | relative mRNA vs RA-treated samples: p16, BLIMP1, ZYG11B, IL-8 (epidermal); p16, MMP1, IL-8, Ki-67 (dermal) [8, 9]
1 | CC[C@H](C)[C@H](NC(=O)CNC(=O)[C@H](CCCCN)NC(=O)[C@H](CC(C)C)NC(=O)[C@H](Cc1c[nH]c2ccccc12)NC(=O)[C@H](Cc1c[nH]cn1)NC(=O)[C@H](CCCCN)NC(=O)[C@H](C)NC(=O)[C@@H](NC(=O)[C@@H](N)CCC(=O)O)[C@@H](C)O)C(=O)O [Peptide 14, ETAKHWLKGI] (H-ETAKHWLKGI-OH; N-terminus and C-terminus assumed) | No significant differences | did not significantly alter | not toxic |  |  |  |  |  |  |  |  | 
2 | ATAKAWLKGI [Peptide 13] |  |  |  | senotherapeutic effects | decreased | dermal samples only | decreased staining | 23.44 | similar | higher | similar | lower
